From US8765748B2, “Indazolyl, benzimidazolyl, benzotriazolyl substituted indolinone derivatives as kinase inhibitors useful in the treatment of cancer” (University Health Network, priority 2007, dated 2014)

What was measured:
Format in all cases: biochemical
[1] = molecular target: FGFR1; test: Millipore kinase assay, radiolabelled phosphopeptide filter binding, IC50 estimate; details: estimated from inhibition at three compound concentrations; ATP at the Km
Experimental: (§1) Kinase assays at Millipore were performed using a radiolabelled phosphopeptide filter binding detection system, in duplicate, at each compound concentration. The ATP substrate concentration in the reactions was at the Km for each enzyme.
(§2) To allow for a more direct comparison of compound inhibition, an IC50 value was estimated from the inhibition determined at three compound concentrations. Several assumptions were made to allow this calculation using a 4 parameter non linear curve fit model, including full inhibition set at 100%, no inhibition set to 0%, and a curve fit parameter set at 1. The inflection point was reported as the estimated IC50.

[2] = molecular target: T1, FLT-1 (Homo sapiens, UniProt P17948); test: as above; details: estimated from inhibition at three compound concentrations; ATP at the Km
T1 construct: purchased Millipore (assay service)
Experimental: as §1, §2

[3] = molecular target: T2, PDGFRβ (Homo sapiens, UniProt P09619); test: as above; details: estimated from inhibition at three compound concentrations; ATP at the Km
T2 construct: purchased Millipore (assay service)
Experimental: as §1, §2

[4] = molecular target: T3, BMX kinase (Etk) (Homo sapiens, UniProt P51813); test: Kinase Selectivity Assay (CEREP, HTRF); details: read-out: % Inhibition at 10 μM Concentration, BMX (Etk)
T3 construct: CEREP, France (ran the assays)
T3 sequence (P51813 1-675): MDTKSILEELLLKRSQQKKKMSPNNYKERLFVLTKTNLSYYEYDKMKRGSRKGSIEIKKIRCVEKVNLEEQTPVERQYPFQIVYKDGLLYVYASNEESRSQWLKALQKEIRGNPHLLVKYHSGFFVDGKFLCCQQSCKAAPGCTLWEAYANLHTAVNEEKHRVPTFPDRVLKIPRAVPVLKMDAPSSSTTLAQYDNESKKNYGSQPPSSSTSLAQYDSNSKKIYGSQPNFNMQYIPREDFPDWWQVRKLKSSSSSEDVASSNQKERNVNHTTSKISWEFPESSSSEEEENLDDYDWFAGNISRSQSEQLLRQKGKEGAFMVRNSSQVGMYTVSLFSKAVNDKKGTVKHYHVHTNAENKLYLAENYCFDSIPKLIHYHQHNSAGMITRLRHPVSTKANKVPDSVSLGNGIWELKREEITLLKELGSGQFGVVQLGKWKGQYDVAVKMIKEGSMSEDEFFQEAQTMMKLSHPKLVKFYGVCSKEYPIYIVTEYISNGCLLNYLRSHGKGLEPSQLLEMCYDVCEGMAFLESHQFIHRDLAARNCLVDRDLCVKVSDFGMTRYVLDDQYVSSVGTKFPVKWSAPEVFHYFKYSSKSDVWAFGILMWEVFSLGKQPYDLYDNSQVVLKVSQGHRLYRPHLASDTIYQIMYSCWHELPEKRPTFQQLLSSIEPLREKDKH
Experimental: (§3) kinase, ROCK2, RSK2, Src kinase, Syk, and TRKA. The % Inhibition was determined

[5] = molecular target: T4, Brk (Homo sapiens, UniProt Q13882); test: Kinase Selectivity Assay (CEREP, HTRF); details: read-out: % Inhibition at 10 μM Concentration, Brk
T4 construct: CEREP, France (ran the assays)
T4 sequence (Q13882 whole entry): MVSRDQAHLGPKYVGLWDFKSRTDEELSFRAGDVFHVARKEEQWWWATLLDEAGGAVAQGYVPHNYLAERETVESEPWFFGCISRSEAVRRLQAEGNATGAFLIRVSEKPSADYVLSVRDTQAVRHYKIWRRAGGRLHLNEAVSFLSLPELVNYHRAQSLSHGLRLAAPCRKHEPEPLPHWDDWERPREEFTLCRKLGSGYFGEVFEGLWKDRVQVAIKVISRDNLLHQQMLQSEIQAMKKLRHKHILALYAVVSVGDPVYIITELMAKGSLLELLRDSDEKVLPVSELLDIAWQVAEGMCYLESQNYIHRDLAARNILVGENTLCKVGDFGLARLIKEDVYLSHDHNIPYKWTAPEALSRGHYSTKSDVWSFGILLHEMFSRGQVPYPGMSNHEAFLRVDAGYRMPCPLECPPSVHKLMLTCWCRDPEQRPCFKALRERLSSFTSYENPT
Experimental: as §3

[6] = molecular target: T5, CDK2 (cycE) (Homo sapiens, UniProt P24941); test: Kinase Selectivity Assay (CEREP, HTRF); details: read-out: % Inhibition at 10 μM Concentration, CDK2 (cycE)
T5 construct: CEREP, France (ran the assays)
Experimental: as §3

[7] = molecular target: T6, CaMK2a (Homo sapiens, UniProt Q9UQM7); test: Kinase Selectivity Assay (CEREP, HTRF); details: read-out: % Inhibition at 10 μM Concentration, CaMK2alpha
T6 construct: CEREP, France (ran the assays)
T6 sequence (Q9UQM7 whole entry): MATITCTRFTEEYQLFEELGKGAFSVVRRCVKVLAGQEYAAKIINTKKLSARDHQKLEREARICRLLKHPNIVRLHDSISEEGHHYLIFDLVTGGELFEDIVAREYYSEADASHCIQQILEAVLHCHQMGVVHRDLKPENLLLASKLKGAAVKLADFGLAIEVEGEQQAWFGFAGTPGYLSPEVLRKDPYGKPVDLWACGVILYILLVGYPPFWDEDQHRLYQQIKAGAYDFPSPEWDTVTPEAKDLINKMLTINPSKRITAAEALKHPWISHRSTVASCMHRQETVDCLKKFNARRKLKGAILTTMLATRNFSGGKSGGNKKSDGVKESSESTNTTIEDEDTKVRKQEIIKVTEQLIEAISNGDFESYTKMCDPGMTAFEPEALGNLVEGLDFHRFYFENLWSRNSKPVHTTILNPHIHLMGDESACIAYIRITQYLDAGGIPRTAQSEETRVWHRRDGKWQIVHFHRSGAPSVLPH
Experimental: as §3

[8] = molecular target: T7, ERK1 (Homo sapiens, UniProt P27361); test: Kinase Selectivity Assay (CEREP, HTRF); details: read-out: % Inhibition at 10 μM Concentration, ERK1
T7 construct: CEREP, France (ran the assays)
T7 sequence (P27361 whole entry): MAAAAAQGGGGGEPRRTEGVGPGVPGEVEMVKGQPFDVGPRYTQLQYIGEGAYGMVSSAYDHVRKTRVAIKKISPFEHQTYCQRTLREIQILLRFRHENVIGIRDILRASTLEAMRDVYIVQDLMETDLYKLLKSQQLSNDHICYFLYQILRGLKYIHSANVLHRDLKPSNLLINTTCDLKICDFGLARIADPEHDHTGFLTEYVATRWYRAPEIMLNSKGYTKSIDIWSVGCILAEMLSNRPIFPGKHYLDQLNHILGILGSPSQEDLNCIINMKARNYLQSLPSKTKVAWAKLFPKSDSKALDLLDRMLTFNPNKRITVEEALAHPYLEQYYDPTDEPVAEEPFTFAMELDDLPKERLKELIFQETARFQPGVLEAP
Experimental: as §3

[9] = molecular target: T8, FLT-1 kinase (VEGFR1) (Homo sapiens, UniProt P17948); test: Kinase Selectivity Assay (CEREP, HTRF); details: read-out: % Inhibition at 10 μM Concentration, FLT-1 (VEGFR1)
T8 construct: CEREP, France (ran the assays)
Experimental: as §3

[10] = molecular target: IRK (InsR) (Homo sapiens, UniProt P06213); test: Kinase Selectivity Assay (CEREP, HTRF); details: read-out: % Inhibition at 10 μM Concentration, IRK (InsR)
IRK (InsR), sequence (P06213 28-1382): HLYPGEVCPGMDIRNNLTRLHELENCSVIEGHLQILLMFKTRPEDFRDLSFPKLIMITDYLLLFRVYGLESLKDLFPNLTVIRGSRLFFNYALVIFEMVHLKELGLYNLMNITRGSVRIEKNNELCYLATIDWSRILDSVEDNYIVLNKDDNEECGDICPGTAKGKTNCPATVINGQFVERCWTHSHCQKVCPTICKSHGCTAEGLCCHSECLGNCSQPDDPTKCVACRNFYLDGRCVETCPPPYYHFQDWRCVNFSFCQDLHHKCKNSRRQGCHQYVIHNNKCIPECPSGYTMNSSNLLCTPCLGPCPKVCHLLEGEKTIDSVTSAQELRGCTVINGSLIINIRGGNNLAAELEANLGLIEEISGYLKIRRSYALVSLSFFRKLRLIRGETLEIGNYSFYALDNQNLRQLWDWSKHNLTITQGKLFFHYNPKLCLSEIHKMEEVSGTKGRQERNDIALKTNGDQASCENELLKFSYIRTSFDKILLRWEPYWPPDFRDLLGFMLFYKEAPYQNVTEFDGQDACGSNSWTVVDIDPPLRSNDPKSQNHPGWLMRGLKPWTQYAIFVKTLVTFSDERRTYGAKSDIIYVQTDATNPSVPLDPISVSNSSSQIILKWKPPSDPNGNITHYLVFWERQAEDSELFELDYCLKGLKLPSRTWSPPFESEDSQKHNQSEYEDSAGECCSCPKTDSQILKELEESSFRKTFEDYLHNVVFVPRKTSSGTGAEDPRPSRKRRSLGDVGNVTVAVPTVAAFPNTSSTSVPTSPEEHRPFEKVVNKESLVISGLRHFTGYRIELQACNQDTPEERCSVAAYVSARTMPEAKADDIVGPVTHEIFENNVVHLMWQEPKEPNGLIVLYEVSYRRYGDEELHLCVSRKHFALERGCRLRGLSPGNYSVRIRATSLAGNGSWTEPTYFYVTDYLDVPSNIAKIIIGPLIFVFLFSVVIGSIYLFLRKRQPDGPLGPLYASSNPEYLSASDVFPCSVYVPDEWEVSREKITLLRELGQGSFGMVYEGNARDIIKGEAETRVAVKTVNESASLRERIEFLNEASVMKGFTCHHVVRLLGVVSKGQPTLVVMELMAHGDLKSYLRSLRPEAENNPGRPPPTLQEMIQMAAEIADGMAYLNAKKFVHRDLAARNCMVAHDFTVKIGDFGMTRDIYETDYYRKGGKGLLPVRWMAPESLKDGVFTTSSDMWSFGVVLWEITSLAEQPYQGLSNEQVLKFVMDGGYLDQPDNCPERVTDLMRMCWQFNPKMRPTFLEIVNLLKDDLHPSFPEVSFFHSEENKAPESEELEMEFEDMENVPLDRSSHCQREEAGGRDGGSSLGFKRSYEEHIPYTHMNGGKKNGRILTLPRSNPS
Experimental: as §3

[11] = molecular target: JNK 2 (Homo sapiens, UniProt P45984); test: Kinase Selectivity Assay (CEREP, HTRF); details: read-out: % Inhibition at 10 μM Concentration, JNK 2
JNK 2, sequence (P45984 whole entry): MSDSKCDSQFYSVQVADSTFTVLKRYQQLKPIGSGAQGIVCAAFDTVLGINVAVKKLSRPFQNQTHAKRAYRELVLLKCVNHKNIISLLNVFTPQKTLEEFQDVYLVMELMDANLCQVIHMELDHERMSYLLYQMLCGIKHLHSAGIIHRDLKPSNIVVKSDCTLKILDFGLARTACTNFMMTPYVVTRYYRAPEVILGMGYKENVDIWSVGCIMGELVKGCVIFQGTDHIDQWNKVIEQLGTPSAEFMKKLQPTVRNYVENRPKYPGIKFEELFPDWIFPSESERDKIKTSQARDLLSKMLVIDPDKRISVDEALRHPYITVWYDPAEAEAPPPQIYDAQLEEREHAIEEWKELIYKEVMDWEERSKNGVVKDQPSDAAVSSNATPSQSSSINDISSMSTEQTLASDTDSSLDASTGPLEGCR
Experimental: as §3

[12] = molecular target: Lyn (Homo sapiens, UniProt P07948); test: Kinase Selectivity Assay (CEREP, HTRF); details: read-out: % Inhibition at 10 μM Concentration, Lyn
Lyn, sequence (P07948 whole entry): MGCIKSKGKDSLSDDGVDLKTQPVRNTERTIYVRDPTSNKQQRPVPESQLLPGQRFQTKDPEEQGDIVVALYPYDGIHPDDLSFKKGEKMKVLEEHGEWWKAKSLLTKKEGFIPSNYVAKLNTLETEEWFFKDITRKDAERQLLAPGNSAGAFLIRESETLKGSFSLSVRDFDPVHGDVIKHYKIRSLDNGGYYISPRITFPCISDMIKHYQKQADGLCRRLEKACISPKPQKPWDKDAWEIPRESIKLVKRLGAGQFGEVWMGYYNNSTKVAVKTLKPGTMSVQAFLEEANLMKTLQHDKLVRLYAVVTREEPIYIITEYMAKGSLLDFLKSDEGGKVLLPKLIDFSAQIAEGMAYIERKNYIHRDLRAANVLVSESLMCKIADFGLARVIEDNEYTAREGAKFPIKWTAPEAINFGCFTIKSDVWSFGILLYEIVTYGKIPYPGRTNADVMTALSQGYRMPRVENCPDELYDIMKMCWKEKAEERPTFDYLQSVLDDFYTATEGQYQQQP
Experimental: as §3

[13] = molecular target: MEK1/MAP2K1 (Homo sapiens, UniProt Q02750); test: Kinase Selectivity Assay (CEREP, HTRF); details: read-out: % Inhibition at 10 μM Concentration, MEK1/MAP2K1
MEK1/MAP2K1, sequence (Q02750 whole entry): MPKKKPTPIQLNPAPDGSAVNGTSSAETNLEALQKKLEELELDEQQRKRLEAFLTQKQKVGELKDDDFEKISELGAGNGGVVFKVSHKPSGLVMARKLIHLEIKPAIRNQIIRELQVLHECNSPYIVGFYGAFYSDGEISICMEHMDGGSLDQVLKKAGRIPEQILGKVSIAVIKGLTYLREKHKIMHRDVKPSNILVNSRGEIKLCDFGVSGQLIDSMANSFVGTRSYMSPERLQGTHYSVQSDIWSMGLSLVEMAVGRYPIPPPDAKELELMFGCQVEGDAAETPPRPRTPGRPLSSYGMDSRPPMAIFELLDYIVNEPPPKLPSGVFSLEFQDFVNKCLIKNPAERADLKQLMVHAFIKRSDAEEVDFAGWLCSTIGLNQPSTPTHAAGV
Experimental: as §3

[14] = molecular target: PKCb1 (Homo sapiens, UniProt P05771); test: Kinase Selectivity Assay (CEREP, HTRF); details: read-out: % Inhibition at 10 μM Concentration, PKCbeta 1
Experimental: as §3

[15] = molecular target: T9, c-Met kinase (Homo sapiens, UniProt P08581); test: Kinase Selectivity Assay (CEREP, HTRF); details: read-out: % Inhibition at 10 μM Concentration, c-Met
T9 construct: CEREP, France (ran the assays)
Experimental: as §3

[16] = molecular target: T10, p38g kinase (Homo sapiens, UniProt P53778); test: Kinase Selectivity Assay (CEREP, HTRF); details: read-out: % Inhibition at 10 μM Concentration, p38gamma
T10 sequence (P53778 1-367): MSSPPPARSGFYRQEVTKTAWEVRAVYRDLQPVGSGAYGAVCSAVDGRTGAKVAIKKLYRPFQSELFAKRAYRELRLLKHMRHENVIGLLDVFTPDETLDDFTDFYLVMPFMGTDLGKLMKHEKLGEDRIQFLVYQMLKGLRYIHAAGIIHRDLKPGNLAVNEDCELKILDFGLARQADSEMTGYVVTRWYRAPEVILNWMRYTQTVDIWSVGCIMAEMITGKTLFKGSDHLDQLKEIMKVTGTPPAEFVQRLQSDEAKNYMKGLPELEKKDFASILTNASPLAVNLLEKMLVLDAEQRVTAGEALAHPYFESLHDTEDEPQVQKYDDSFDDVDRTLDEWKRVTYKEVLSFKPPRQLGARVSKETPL
Experimental: as §3

[17] = molecular target: TRKA (Homo sapiens, UniProt P04629); test: Kinase Selectivity Assay (CEREP, HTRF); design: purchased CEREP, France (contract assay service); details: read-out: % Inhibition at 10 μM Concentration, TRKA
TRKA, sequence (P04629 33-796): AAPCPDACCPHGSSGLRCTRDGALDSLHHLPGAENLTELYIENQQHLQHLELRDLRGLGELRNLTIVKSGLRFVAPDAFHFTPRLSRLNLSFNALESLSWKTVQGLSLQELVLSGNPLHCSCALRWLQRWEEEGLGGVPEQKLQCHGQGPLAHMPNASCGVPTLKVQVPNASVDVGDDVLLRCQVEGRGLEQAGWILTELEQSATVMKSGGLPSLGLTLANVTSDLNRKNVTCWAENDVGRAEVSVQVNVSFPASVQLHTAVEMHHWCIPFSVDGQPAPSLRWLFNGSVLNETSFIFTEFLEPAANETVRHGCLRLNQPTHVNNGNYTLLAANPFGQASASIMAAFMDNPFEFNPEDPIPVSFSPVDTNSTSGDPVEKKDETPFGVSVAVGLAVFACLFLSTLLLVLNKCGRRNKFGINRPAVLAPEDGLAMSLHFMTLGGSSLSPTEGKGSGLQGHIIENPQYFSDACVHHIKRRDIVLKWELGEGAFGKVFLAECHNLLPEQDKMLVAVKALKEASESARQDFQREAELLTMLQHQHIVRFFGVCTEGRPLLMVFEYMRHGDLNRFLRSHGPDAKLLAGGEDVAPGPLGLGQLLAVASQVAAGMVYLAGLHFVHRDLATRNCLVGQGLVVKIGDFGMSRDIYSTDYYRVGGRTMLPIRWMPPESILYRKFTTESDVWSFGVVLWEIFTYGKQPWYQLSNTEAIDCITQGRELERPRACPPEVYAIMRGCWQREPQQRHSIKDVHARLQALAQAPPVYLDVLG
Experimental: as §3

| SMILES | IC50 [1] [µM] | IC50 [2] [µM] | IC50 [3] [µM] | inhibition at 10 µM [4] [%] | inhibition at 10 µM [5] [%] | inhibition at 10 µM [6] [%] | inhibition at 10 µM [7] [%] | inhibition at 10 µM [8] [%] | inhibition at 10 µM [9] [%] | inhibition at 10 µM [10] [%] | inhibition at 10 µM [11] [%] | inhibition at 10 µM [12] [%] | inhibition at 10 µM [13] [%] | inhibition at 10 µM [14] [%] | inhibition at 10 µM [15] [%] | inhibition at 10 µM [16] [%] | inhibition at 10 µM [17] [%] |
| --- | --- | --- | --- | --- | --- | --- | --- | --- | --- | --- | --- | --- | --- | --- | --- | --- | --- |
| CN(C)Cc1ccc(/C=C/c2n[nH]c3cc(C=C4C(=O)Nc5ccccc54)ccc23)cc1 (mixture of isomers) [Example A106, (E and Z)-3-[(3-{(E)-2-[4-((dimethylamino)methyl)-phenyl]-ethenyl}-1H-indazol-6-yl)methylidene]-1,3-dihydro-2H-indol-2-one 2,2,2-trifluoroacetate] | < 5 | < 5 | < 5 | – | – | – | – | – | – | – | – | – | – | – | – | – | – |
| O=C1Nc2ccccc2/C1=C\c1ccc2c(/C=C/c3ccccc3Cl)n[nH]c2c1 [Example A60, (E)-3-((3-((E)-2-chlorostyryl)-1H-indazol-6-yl)methylene)indolin-2-one] | – | – | – | 18 | 4 | 5 | -2 | 1 | 42 | 6 | 3 | 88 | 16 | 0 | 0 | 10 | 75 |
| O=C1Nc2ccccc2C1=Cc1ccc2c(/C=C/c3ccccn3)n[nH]c2c1 (mixture of isomers) [Example A41, (E and Z)-3-((3-((E)-2-(pyridin-2-yl)vinyl)-1H-indazol-6-yl)methylene)indolin-2-one] | < 5 | < 5 | < 5 | 53 | 40 | 8 | 31 | 13 | 99 | 34 | 52 | 98 | 46 | -2 | 35 | 2 | 99 |
| O=C1Nc2ccccc2/C1=C\c1ccc2[nH]nnc2c1 [Example A1, (E)-3-((1H-benzo[d][1,2,3]triazol-5-yl)methylene)indolin-2-one] | – | – | – | – | 5 | 10 | 4 | 6 | 0 | 13 | 13 | 14 | 20 | 1 | -20 | 14 | -13 |
| COc1ccc2c(c1)C(=Cc1ccc3c(-c4ccc(N5CCN(C)CC5)nc4)n[nH]c3c1)C(=O)N2 (mixture of isomers) [Example A97, (E and Z)-5-methoxy-3-((3-(6-(4-methylpiperazin-1-yl)pyridin-3-yl)-1H-indazol-6-yl)methylene)indolin-2-one] | < 5 | < 5 | 5 to 50 | 9 | 7 | 3 | 14 | 10 | 73 | 9 | 14 | 85 | 9 | 2 | 28 | 1 | 93 |
| O=C1Nc2ccccc2/C1=C\c1ccc2cn[nH]c2c1 [Example A5, (E)-3-((1H-indazol-6-yl)methylene)indolin-2-one] | – | – | – | -3 | -6 | 16 | -3 | 6 | 16 | 12 | 14 | -5 | 3 | -5 | 2 | 5 | 60 |
